Assays:
[1] = Activation of SMN2 promoter in mouse NSC34 cells assessed as induction of beta-lactamase activity; assay type: functional, cell-based; details: Mus musculus, NSC-34
[2] = target: T1, Dihydrofolate reductase (Homo sapiens, UniProt P00374); assay: Inhibition of human recombinant DHFR
T1 sequence (P00374 whole entry): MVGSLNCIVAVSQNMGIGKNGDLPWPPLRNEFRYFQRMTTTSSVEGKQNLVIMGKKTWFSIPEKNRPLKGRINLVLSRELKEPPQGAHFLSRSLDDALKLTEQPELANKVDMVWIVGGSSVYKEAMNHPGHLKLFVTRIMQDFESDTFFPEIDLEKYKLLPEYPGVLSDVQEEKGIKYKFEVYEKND

[3] = Activation of SMN2 promoter in mouse NSC34 cells assessed as induction of beta-lactamase activity relative to nonactivated cells; assay type: functional
Throughout, for activity: test concentration or dose not given here.

SMILES | EC50 [1] [µM] | IC50 [2] [µM] | Activity [3]
Nc1nc(N)c2c(OCc3ccccc3F)cccc2n1 | 0.052 | 0.00039 | 2.3
Nc1nc(N)c2c(COc3ccccc3F)cccc2n1 | 0.019 | 0.039 | 2.1
Nc1nc(N)c2c(COc3cccc(Cl)c3)cccc2n1 | 0.042 | 8.4 | 2
Cc1cccc(S(=O)(=O)N2CCC(COc3cccc4nc(N)nc(N)c34)CC2)c1 | 0.221 |  | 1.8
Nc1nc(N)c2c(Oc3ccc4cnccc4c3)cccc2n1 | 1.26 |  | 2.3
Cc1ccc(CN2CCC(COc3cccc4nc(N)nc(N)c34)CC2)cc1.Cl | 0.024 |  | 1.9
Nc1nc(N)c2c(OCC3CCCCO3)cccc2n1 (stereo unspecified) | 0.48 |  | 2.1
Nc1nc(N)c2c(OCc3cc(F)ccc3F)cccc2n1 | 0.047 |  | 2
Nc1nc(N)c2c(COc3ccccc3I)cccc2n1 | 0.39 |  | 1.9
Nc1nc(N)c2c(OCC3CCN(C(=O)c4ccc(F)cc4F)CC3)cccc2n1 | 0.089 |  | 2.4
COc1cccc(COc2cccc3nc(N)nc(N)c23)c1 | 0.066 |  | 1.6
Nc1nc(N)c2c(COc3ccc(F)cc3)cccc2n1 | 0.35 |  | 2.2
Nc1nc(N)c2c(OCc3cc(F)cc(F)c3)cccc2n1 | 0.014 |  | 1.9
C[C@H](Oc1cccc2nc(N)nc(N)c12)c1cccc(Cl)c1 | 0.002 | 0.025 | 
Cc1cccc(C(=O)N2CCC(COc3cccc4nc(N)nc(N)c34)CC2)c1 | 0.11 |  | 2.2
Cl.Nc1nc(N)c2c(Oc3cccc4cnccc34)cccc2n1 | 1.03 |  | 2.04
Cc1cc(COc2cccc3nc(N)nc(N)c23)no1 | 0.28 |  | 2.2
Nc1nc(N)c2c(OCC3CCN(Cc4ccc(Cl)cc4)CC3)cccc2n1 | 0.047 |  | 1.8
Nc1nc(N)c2c(OCC3CCCCC3)cccc2n1 | 2.71 |  | 1.9
CCCCCCCCCOc1cccc2nc(N)nc(N)c12 | 0.55 |  | 1.7
Nc1nc(N)c2c(OCC3CCN(Cc4ccc(F)c(F)c4)CC3)cccc2n1 | 0.322 |  | 2
Cl.Nc1nc(N)c2c(OCC3CCN(Cc4ccc(F)cc4F)CC3)cccc2n1 | 0.018 |  | 1.9

SMILES | EC50 [1] [µM] | IC50 [2] [µM] | Activity [3]
Nc1nc(N)c2c(OCc3cccc(F)c3)cccc2n1 | 0.055 |  | 1.59
Nc1nc(N)c2c(OCC3CCN(C(=O)c4ccc(Cl)cc4)CC3)cccc2n1 | 0.081 |  | 2.4
Nc1nc(N)c2c(OCC3CCCC3)cccc2n1 | 0.47 |  | 1.9
Cc1ccc(S(=O)(=O)N2CCC(COc3cccc4nc(N)nc(N)c34)CC2)cc1 | 0.551 |  | 1.9
Cc1ccc(Oc2cccc3nc(N)nc(N)c23)cc1 | 1.21 |  | 1.6
Nc1nc(N)c2c(OCc3ccco3)cccc2n1 | 0.3 |  | 1.7
Cc1ccc(C(=O)N2CCC(COc3cccc4nc(N)nc(N)c34)CC2)cc1 | 0.133 |  | 2.6
Nc1nc(N)c2c(OCC3CCN(S(=O)(=O)c4cccc(Cl)c4)CC3)cccc2n1 | 0.172 |  | 1.9
COc1ccc(COc2cccc3nc(N)nc(N)c23)cc1 | 0.3 |  | 1.7
CC(C)CCOc1cccc2nc(N)nc(N)c12 | 0.097 |  | 2
Cc1cccc(COc2cccc3nc(N)nc(N)c23)c1 | 0.12 |  | 1.7
Nc1nc(N)c2c(OCC3CCN(Cc4cccc5ccccc45)CC3)cccc2n1 | 0.043 |  | 2
Nc1nc(N)c2c(OCC3CCN(C(=O)c4ccccc4F)CC3)cccc2n1 | 0.074 |  | 2.5
Cc1ccccc1C(=O)N1CCC(COc2cccc3nc(N)nc(N)c23)CC1 | 0.16 |  | 2.5
Nc1nc(N)c2c(OCc3ccccn3)cccc2n1 | 0.25 |  | 1.9
CCCCCOc1cccc2nc(N)nc(N)c12 | 0.19 |  | 2.1
Nc1nc(N)c2c(Oc3cccc(Cl)c3)cccc2n1 | 0.48 |  | 1.74
Nc1nc(N)c2c(OCc3ccc(C(F)(F)F)cc3)cccc2n1 | 0.017 |  | 1.6
CC(C)COc1cccc2nc(N)nc(N)c12 | 0.18 |  | 1.8
CCCCOc1cccc2nc(N)nc(N)c12 | 0.14 |  | 2.2
Nc1nc(N)c2c(OCC3CCN(Cc4cccc(F)c4F)CC3)cccc2n1 | 0.038 |  | 2.2
Nc1nc(N)c2c(COc3ccc(F)cc3F)cccc2n1 | 0.042 | 10.7 | 2.2

SMILES | EC50 [1] [µM] | IC50 [2] [µM] | Activity [3]
Cc1cccc(CN2CCC(COc3cccc4nc(N)nc(N)c34)CC2)c1 | 0.022 |  | 1.9
Nc1nc(N)c2c(OCC3CCN(C(=O)c4ccc(F)c(F)c4)CC3)cccc2n1 | 0.104 |  | 2.4
Nc1nc(N)c2c(COc3ccc(Cl)cc3)cccc2n1 | 0.19 |  | 2
Cc1ccc(OCc2cccc3nc(N)nc(N)c23)cc1 | 0.41 |  | 2.2
Nc1nc(N)c2c(OCC3CCN(C(=O)c4cccc5ccccc45)CC3)cccc2n1 | 0.035 |  | 2.5
Nc1nc(N)c2c(OCC3CCN(Cc4ccc5ccccc5c4)CC3)cccc2n1 | 0.148 |  | 1.7
Nc1nc(N)c2c(OCC3CCN(C(=O)c4cccc(F)c4F)CC3)cccc2n1 | 0.067 |  | 2.5
Nc1nc(N)c2c(OCc3cc4ccccc4cn3)cccc2n1 | 0.22 |  | 2.3
Cc1ccc(COc2cccc3nc(N)nc(N)c23)cc1 | 0.22 |  | 2.04
Nc1nc(N)c2c(OCc3ccccc3Cl)cccc2n1 | 0.14 |  | 2
CN1CCCCC1COc1cccc2nc(N)nc(N)c12 (stereo unspecified) | 0.14 |  | 1.9
Nc1nc(N)c2c(OCC3CCN(S(=O)(=O)c4cccc5ccccc45)CC3)cccc2n1 | 0.35 |  | 1.9
Nc1nc(N)c2c(OCc3cccs3)cccc2n1 | 0.073 |  | 1.9
Nc1nc(N)c2c(OCc3ccccc3C(F)(F)F)cccc2n1 | 0.016 |  | 1.6
CCCOc1cccc2nc(N)nc(N)c12 | 0.18 |  | 2.1
Nc1nc(N)c2c(OCC3CCN(Cc4ccccc4Cl)CC3)cccc2n1 | 0.038 |  | 2
Nc1nc(N)c2c(OCc3ccc(F)cc3)cccc2n1 | 0.053 |  | 1.8
Nc1nc(N)c2c(OCc3c(F)cccc3F)cccc2n1 | 0.19 |  | 1.8
Nc1nc(N)c2c(Oc3ccccc3Cl)cccc2n1 | 0.51 |  | 1.76
Nc1nc(N)c2c(OCc3cccnc3)cccc2n1 | 0.024 |  | 2.1
Nc1nc(N)c2c(OCC3CCN(S(=O)(=O)c4ccccc4Cl)CC3)cccc2n1 | 0.897 |  | 2.1
Nc1nc(N)c2c(OCc3ccc(F)c(F)c3)cccc2n1 | 0.014 |  | 1.8

From ChEMBL document CHEMBL1140748, “Synthesis and biological evaluation of novel 2,4-diaminoquinazoline derivatives as SMN2 promoter activators for the potential treatment of spinal muscular atrophy” (J Med Chem, 2008)
